Reference: patent publication US7319090B2, “Methods of treating cerebral ischemia” (University of North Carolina at Chapel Hill, priority 2002, dated 2008)
Where a SMILES comes first, the peptide text is derived from it. Where no end group is shown, it is not given here. [ ]: non-standard residue; d: D form. Ala(indol-4-yl) = N[C@@H](Cc1cccc2[nH]ccc12)C(=O)O; NMeR = CN[C@@H](CCCNC(=N)N)C(=O)O; Tle = CC(C)(C)[C@H](N)C(=O)O; dOrn = NCCC[C@@H](N)C(=O)O; neo‑Trp = not defined here

Columns and labels:
Assay type in all cases: in vivo, rat
Sprague-Dawley rats [1] = experiment: Behavioral thermoregulation in a temperature gradient (selected Ta, core temperature, motor activity) after NT77
Method: Male rats of the Sprague-Dawley strain at 60 days of age were obtained from Charles River Laboratories (Raleigh, N.C.). The animals were housed individually in acrylic cages lined with wood shavings at an ambient temperature (Ta) of 22° C., relative humidity of 50%, and a 12 hour light:12 hour dark photoperiod (lights were turned on at 6 a.m. and turned off at 6 p.m.). Core temperature and motor activity were monitored in undisturbed rats using radio telemetry (Data Sciences International, St. Paul, Minn.). Details of the telemetry system are described in Gordon, C. J., 24-hour control of body temperature in the rat: I. Integration of behavioral and autonomic effectors, Am. J. Physiol. 267, […]-[…], 1994. Briefly, rats were anesthetized with sodium pentobarbital (50 mg/kg; intraperitoneally) and an incision was made for the implantation of the transmitter (TAIOTA-F40) into the abdominal cavity. The abdominal muscle was sutured and the skin was closed with wound clips. […] The behavioral thermoregulatory response to NT77 was assessed by measuring selected ambient temperature (Selected Ta) of the unrestrained rats when housed in a temperature gradient (Gordon, C. J., 24-hour control of body temperature in the rat: I. Integration of behavioral and autonomic effectors, Am. J. Physiol. 267, […]-[…], 1994). Rats were placed in a temperature gradient and allowed to behaviorally select from a range of ambient temperatures (Ta) while core temperature (Tc) was monitored by radiotelemetry. Selected Ta, core temperature (Tc), and motor activity were monitored at 1 minute intervals. […] Selected Ta was measured by photocells positioned at 10 cm intervals that detected the position of the rat in the gradient and automatically compared the position to the air temperature measured by thermocouples placed immediately outside the wire-mesh cage. Motor activity was calculated by measuring the change in position of the rat in the gradient at 1 minute intervals. […] The behavioral and core temperature data were recorded at 1 minute intervals throughout the experiment. […]

Sprague-Dawley rats [2] = experiment: Metabolism and heat loss in a direct calorimeter after NT77; settings: 5.0 mg/kg i.p.; data not shown
Method: Oxygen consumption and dry heat loss were measured in naive rats implanted with radiotransmitters and housed in a direct calorimeter. The internal dimensions of the calorimeter were 30.5 cm×30.5 cm×30.5 cm. The calorimeter was used to measure the rate of dry heat loss (i.e., thermal conductance) from the rats using thermoelectric sensors in the calorimeter walls. The calorimeter was housed inside a temperature-controlled chamber maintained at 23.5° C. The inside of the calorimeter was dimly illuminated with LED lights (total power=0.2 Watts). […]
A mass flow controller was used to meter dry air at a constant flow rate (2.7 liters/minute; STP) into the calorimeter. […] Percent oxygen, dry heat loss, air flow rate, and calorimeter temperature were monitored at 1 minute intervals by a data acquisition system (Dianachart PC acquisitor). […] (W/C) was calculated by dividing the value of dry heat loss at 1 minute intervals by the difference between core and ambient temperature. […]
A naive rat was placed in the wire-mesh cage which was then placed inside the calorimeter at approximately 9 a.m. […] After 115 minutes, the percent oxygen of the inflowing air was measured for another 5 minutes for calibration purposes but the rat was not disturbed. […]

[3] = test system: Sprague-Dawley rats resuscitated from asphyxial cardiac arrest
Source text: Sixteen male Sprague-Dawley rats (Harlan; Madison, Wis.) weighing 300±50 grams were randomized to a control group (saline) or treatment group (NT69L) after resuscitation from asphyxial cardiac arrest. The outcome model of asphyxial cardiac arrest in rats was used to induce the cerebral insult in all rats (Katz et al., Outcome model of asphyxial cardiac arrest in rats, J. Cereb. Blood Flow Metab., 1995, 15:1032-1039). Under titrated inhaled isoflurane anesthesia, brain telemetric probes (Mini-Mitter; Sunriver, Oreg.) were implanted three days before the cerebral insult. […] On the day of the cerebral insult, rats were again anesthetized with inhaled isoflurane anesthesia, intubated, and mechanically ventilated. A tail artery was cannulated for continuous blood pressure monitoring and blood gas analysis, while the jugular vein was cannulated for intravenous drug administration. Intravenous vecuronium (2 mg/kg intravenous) and cessation of mechanical ventilation were used to induce apneic asphyxia. Asphyxia led to cardiac arrest (i.e., mean arterial pressure (MAP)<10 mm Hg and a pulse pressure of 0 mm Hg) within approximately 3 minutes; the cardiac arrest was maintained until resuscitation. Eight minutes after asphyxia, the rats were resuscitated with mechanical ventilation (100% oxygen), 0.005 mg/kg intravenous epinephrine, and chest compressions until a mean arterial pressure of 60 mm Hg was produced and maintained by a spontaneously beating heart for more than 10 seconds. Immediately after restoration of spontaneous circulation (ROSC), the rats were placed in an incubator that maintained an ambient temperature of 31.6° C. […] Ten minutes after ROSC, NT69L (0.5 mg/kg) […] or saline 3 mL/kg was administered intravenously. The ventilator was adjusted to normalize temperature-corrected arterial carbon dioxide before the insult and for two hours after ROSC. Two hours after ROSC, spontaneously breathing rats were extubated and maintained in the incubator for 24 hours. Rats were handled daily after the experiment and had free access to food and water.
(§1) Physiological variables (arterial blood gas, glucose, and MAP) between groups were compared by a one-way analysis of variance (ANOVA). All values were reported as means±standard deviation unless otherwise stated. A one-way analysis of variance (ANOVA) was used to determine the between-group differences in latency time for finding the platform during the MWM on day 14. When an overall significant difference was found, a Tukey post-hoc analysis was used to determine specific between-group differences. Performances on the MWM (learning curve) between days 10 and 14 were compared between groups by a repeated measure ANOVA. Neurological deficit scores between groups were assessed by Kruskal-Wallis analysis. For all analyses, alpha was set at a p<0.05 level of significance.

[4] = test system: Sprague-Dawley rats resuscitated from asphyxial cardiac arrest; experiment: Morris Water Maze on days 10-14 after ROSC (NT69L)
Method: On days 10-14 after ROSC, the rats were accessed for performance in a Morris Water Maze (MWM). Evaluation was begun on day 10 to ensure that there was complete recovery from anesthesia and the surgical procedures based on prior pilot studies (data not shown). A six foot diameter round pool was filled with water (26° C.) to a depth of 20 cm, 1 cm above an 11-cm diameter clear glass escape platform. The escape platform was invisible to a swimming rat and was placed in the northeast quadrant of the pool. The pool had large visible and distinct geometric shapes placed in a north, south, east, and west distribution on the side of the pool wall so that a swimming rat could easily visualize the orientation markers. The pool was situated in a room with black walls and ceiling to minimize external distractions for the rats. Rats were initially placed in the pool (without the escape platform) for 2 minutes to become acclimatized to the new swimming environment. The rats were then placed on the escape platform for 30 seconds to allow for self orientation in the pool. Next, the rats were randomly placed in each of the four geographic outer regions of the pool and their travel path, swim speed, and time required to locate the hidden platform (latency time) were recorded. Rats performed four swim trials on each day with a maximum swim time of 2 minutes, at which time the trial was terminated if a rat was unable to locate the platform. A 3-minute rest period was provided between trials. In addition to the rats that sustained cardiac arrest (n=16), nine sham rats were surgically instrumented and allowed to recover for ten days before being assessed for performance in the MWM.
as §1

[5] = test system: Sprague-Dawley rats resuscitated from asphyxial cardiac arrest; experiment: Neurological deficit score 14 days after ROSC (NT69L)
Method: A final neurological deficit score (NDS) was performed 14 days after ROSC by an evaluator blinded to the insult and therapeutic intervention. Rats were tested for coordination (balance beam walk placing test, depth perception, righting reflex) and for motor and sensory function as described in Katz et al., Outcome model of asphyxial cardiac arrest in rats, J. Cereb. Blood Flow Metab., 1995, 15:1032-1039. The NDS includes a range from 0 (indicating normal) to 100 (indicating brain dead).
as §1

[6] = test system: free-roaming, unanesthetized rats; experiment: Pilot: brain temperature of free-roaming unanesthetized rats without cardiac arrest given NT69L; settings: no cardiac arrest, room temperature 23° C., i.v.
Method: In separate pilot experiments, four rats were instrumented for placement of temperature probes and intravenous catheters as described above. Three days after recovery from anesthesia, NT69L was administered intravenously to two free-roaming, unanesthetized rats at room temperature (23° C.). In the same environment and at the same time, two rats were given a similar volume of saline for comparison.

[7] = NT69L 0.5 mg/kg i.v., ambient 31.6° C.
[8] = intravenously after resuscitation from cardiac arrest
[9] = one NT69L group rat, day 14 after resuscitation

Row | Compound | effect on motor activity (Sprague-Dawley rats [1]; 5.0 mg/kg i.p., temperature gradient) | core temperatures and selected Ta's during the night after treatment (Sprague-Dawley rats [1]; 5.0 mg/kg i.p., data not shown) | loss of initial body weight (Sprague-Dawley rats [1]; day after treatment, saline 1.6%) | effect on motor activity in the calorimeter (Sprague-Dawley rats [2]) | duration of mild hypothermia (mean) ([3]; NT69L 0.5 mg/kg i.v.) | duration of mild hypothermia (median) ([3]; NT69L 0.5 mg/kg i.v.) | duration of mild hypothermia (range) ([3]; NT69L 0.5 mg/kg i.v.) | time until brain temperature dropped below 35° C. after administration (mean) [3, 7] | time until brain temperature dropped below 35° C. after administration (range) [3, 7] | rats with ROSC that survived 14 days ([3]; each group, same as control) | hypothermia produced (conclusion) [3, 8] | hypotension produced ([3]; rat, in vivo) | latency time in Morris Water Maze ([4]; fourteen days after ROSC, control 45±26, sham 10±3) | distance traveled, sample path of one rat (FIG. 1) [4, 9] | latency time, sample path of one rat (FIG. 1) [4, 9] | rates of change of latency time over days 10-14 versus control ([4]; p=0.15 repeated-measures ANOVA) | swimming speed during MWM testing ([4]; sham 27±2, control 25±1) | neurological deficit score (NDS) ([5]; 14 days after ROSC, 0 normal to 100 brain dead, control 30±10) | neurological outcome (conclusion) [5, 8] | brain temperature versus saline rats [6]
1 | CC(C)C[C@H](NC(=O)[C@@H](NC(=O)[C@H](Cc1cccc2[nH]ccc12)NC(=O)[C@@H]1CCCN1C(=O)[C@@H](CCCN)NC(=O)[C@@H](N)CCCNC(=N)N)C(C)(C)C)C(=O)O [NT77] (H-R[dOrn]P[Ala(indol-4-yl)][Tle]L-OH) | no effect | normal | 2.4% | no discernable effect |  |  |  |  |  |  |  |  |  |  |  |  |  |  |  | 
2 | NT69L: neurotensin analog, SEQ ID NO: 16, positions 8-13: N-methyl-Arg, L-Lys, L-Pro, L-neo-Trp, tert-Leu, L-Leu ([NMeR]KP[neo‑Trp][Tle]L; reading uncertain) |  |  |  |  | 300 ± 100 min | 367 min | 20 to 400 min | 13+3 minutes | 8 to 15 min | Seven out of eight | rapid and prolonged mild hypothermia | mild and transient | 22 ± 8 s | 225 cm | 9 s | no difference | 26 ± 1 cm/s | 3±3 | improved neurological outcome | drop in brain temperature
